Test results reported in the NIST ThermoML archive (doi:10.1016/j.fluid.2005.05.023).

Test: xn = mol fraction of the nth substance listed
Conditions: Liquid, Vibrating tube method, x1 = 1

CCO [ethanol] + Cc1ccccc1
mass density [kg/m3]
Conditions | 100 kPa | 5000 kPa | 10000 kPa | 15000 kPa | 20000 kPa | 25000 kPa | 30000 kPa | 35000 kPa | 40000 kPa | 45000 kPa
283.15 K | 798 | 802 | 805.9 | 809.5 | 813 | 816.4 | 819.7 | 822.8 | 825.9 | 828.8
293.15 K | 789.5 | 793.7 | 797.8 | 801.6 | 805.3 | 808.9 | 812.3 | 815.6 | 818.7 | 821.8
303.15 K | 780.9 | 785.3 | 789.6 | 793.7 | 797.5 | 801.3 | 804.8 | 808.2 | 811.5 | 814.7
313.15 K | 772.1 | 776.8 | 781.3 | 785.6 | 789.6 | 793.5 | 797.2 | 800.8 | 804.2 | 807.6
323.15 K | 763.3 | 768.3 | 773 | 777.6 | 781.8 | 785.9 | 789.7 | 793.5 | 797.1 | 800.5
333.15 K | 754 | 759.3 | 764.3 | 769.1 | 773.6 | 777.8 | 781.9 | 785.8 | 789.5 | 793.1
343.15 K | 744.5 | 750.1 | 755.5 | 760.5 | 765.3 | 769.8 | 774 | 778.1 | 782 | 785.7
353.15 K | – | 740.6 | 746.4 | 751.7 | 756.7 | 761.5 | 766 | 770.2 | 774.3 | 778.2
